Assay results from paper PMC2600596 (European journal of pharmacology, 2008).

Legend:
[1] = target: T1, hMOR (human mu opioid receptor) (Homo sapiens, UniProt P35372); type: binding
hMOR = conditions: pH 7.5; cited from earlier work
mu opioid receptor = type: binding; conditions: whole CHO cells, data not shown
[2] = target: T1, hMOR (human mu opioid receptor); type: cell-based

T1 sequence (P35372 whole entry): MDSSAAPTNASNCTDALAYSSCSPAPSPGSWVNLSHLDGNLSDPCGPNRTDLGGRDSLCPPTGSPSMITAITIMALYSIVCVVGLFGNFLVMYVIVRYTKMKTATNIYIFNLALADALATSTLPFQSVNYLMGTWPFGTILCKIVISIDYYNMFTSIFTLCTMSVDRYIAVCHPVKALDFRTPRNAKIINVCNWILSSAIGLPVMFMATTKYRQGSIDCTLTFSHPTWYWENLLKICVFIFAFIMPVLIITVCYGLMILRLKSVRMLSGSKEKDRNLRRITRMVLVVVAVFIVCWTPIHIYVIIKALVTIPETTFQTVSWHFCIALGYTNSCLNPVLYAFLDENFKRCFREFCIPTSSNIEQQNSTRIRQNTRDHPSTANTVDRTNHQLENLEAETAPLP

Row | SMILES | Hill Slope [1] | Ki (hMOR) [nM] | Ki ([1]; pH 7.4) [nM] | [3H]-naloxone radioligand binding displaced (mu opioid receptor) | Imax (maximum percent inhibition of [3H]-cAMP accumulation) [2] [%]
1 | Oc1ccc2c3c1O[C@H]1c4[nH]c5c(c4C[C@@]4(O)[C@@H](C2)N(CC2CC2)CC[C@]314)C[C@@]1(O)[C@H]2Cc3ccc(O)c4c3[C@@]1(CCN2CC1CC1)[C@H]5O4 [nor-BNI, nor-binaltorphimine] | −0.99 | 21 | – | – | –
2 | COC(=O)/C=C/C(=O)N[C@@H]1CC[C@@]2(O)[C@H]3Cc4ccc(O)c5c4[C@@]2(CCN3CC2CC2)[C@H]1O5 [β-FNA, β-funaltrexamine] | −1.01 | 0.3 | 1.85 | – | –
3 | Oc1ccc2c3c1O[C@H]1c4[nH]c5ccccc5c4C[C@@]4(O)[C@@H](C2)N(CC2CC2)CC[C@]314 [Naltrindole, naltrindole] | −0.99 | 6.3 | – | – | –
4 | C=CC[N+]1(C)CC[C@]23c4c5ccc(O)c4O[C@H]2C(=O)CC[C@@]3(O)[C@H]1C5 (stereo partly shown) [naloxone methiodide] | – | – | – | More than 94% | –
5 | C[C@@H](NC(=O)[C@@H](N)Cc1ccc(O)cc1)C(=O)NCC(=O)N(C)[C@@H](Cc1ccccc1)C(=O)NCCO [DAMGO, [D-Ala^2, N-Me-Phe^4, Gly^5-ol]-enkephalin] | −0.85 | – | – | – | 88.8
